One series deals with Tetrabenazin. The experiment in a line: Tetrabenazine antagonism (antidepressant activity). Type of series: in vivo. Particulars: for ED50: no unit, species or route given, read-out: Tetrabenazin Dosis Antagonismus ED50; for LD50/ED50: ratio of LD50 to tetrabenazine antagonism ED50.
A further series is described as follows: Acute toxicity (LD50). Type of series: in vivo. Particulars: no unit, species or route given.

Broadly, the ED50 is the midpoint of the dose-response relation. As usually defined, the LD50 is the dose at which mortality reaches 50%. Read a high LD50 as lower toxicity.

For `Cc1ccc2c(c1)c1c3n2CCNC3CCC1.Cl` (centres unmarked) [8-Methyl-2,3,3a,4,5,6-hexahydro-1H-pyrazino[3,2,1-jk]-carbazol-Hydrochlorid, reference compound], in the series with Tetrabenazin, the ED50 worked out at 14 mg/kg and the LD50/ED50 is 8,7.

For the molecule `Cc1ccc2c(c1)c1c3n2CCN=C3CCC1.Cl` [Beispiel 1, 8-Methyl-2,4,5,6-tetra-hydro-1H-pyrazino[3,2,1-jk]carbazol-Hydrochlorid], in the series “Acute toxicity (LD50)”, the LD50 came out at 72 mg/kg. In addition, in the series with Tetrabenazin, the ED50 was 4 mg/kg and the LD50/ED50 is 18,0.

In turn, `COc1ccc2c(c1)c1c3n2CCN=C3CCC1.Cl` [Beispiel 2, 8-Methoxy-2,4,5,6-tetra-hydro-1H-pyrazino[3,2,1-jk]carbazol-Hydrochlorid] showed an LD50 in the series “Acute toxicity (LD50)” of 37 mg/kg. Also, in the series with Tetrabenazin, the ED50 amounted to 2 mg/kg and the LD50/ED50 is 18,5.

Values taken from EP0028270A1, “Pyrazino-carbazoles, process for their preparation and pharmaceutical compositions containing them” (CASSELLA Aktiengesellschaft, priority 1979, dated 1981).
